# Experimental data reported in ChEMBL document CHEMBL2440097, “Triphenylphosphonium salts of 1,2,4-benzothiadiazine 1,1-dioxides related to diazoxide targeting mitochondrial ATP-sensitive potassium channels” (Bioorg Med Chem Lett, 2013).
# Activity calls are given as the source filed them. No cut-off for these calls is given here.
# Legend:
# H9c2 [1] = experiment: Effect on routine respiration in […] H9C2 cells at 10 uM by high resolution oxygraphic analysis; type: functional, cell-based
# H9c2 [2] = experiment: Effect on oligomycin-inhibited leak respiration in […] H9C2 cells at 10 uM by high resolution oxygraphic analysis; type: functional, cell-based
# H9c2 [3] = experiment: Effect on maximal respiratory capacity in […] H9C2 cells at 10 uM by high resolution oxygraphic analysis; type: functional, cell-based
# [4] = target: Kir6.2/SUR1 (Rattus norvegicus) (UniProt P70673+Q09429); experiment: Activation of Kir6.2/SUR1 in rat pancreatic islets assessed as residual glucose-induced insulin release at 10 uM relative to control
# [5] = Drug uptake in cytosol of […] H9C2 cells at 1 x 10^-4 M after 2 hrs by LC-MS analysis; type: ADME, cell-based; conditions: 100 µM
# H9c2 [6] = experiment: Effect on ATP production in […] H9C2 cells up to 10 uM after 24 hrs by CellTiter-Glo luminescent test; type: functional, cell-based
# [7] = Drug uptake in mitochondria of […] H9C2 cells at 1 x 10^-4 M after 2 hrs by LC-MS analysis; type: ADME; conditions: h9c2, 2 h, 100 µM
# H9c2 [8] = experiment: Effect on metabolic activity in […] H9C2 cells up to 10 uM incubated for 1 hr followed by paraquat addition measured after 24 hrs by CellTiter 96 Aqueous non-radioactive cell proliferation assay; type: functional, cell-based
Activity [4] [%],Drug uptake [5],Drug uptake [7],SMILES,Activity (H9c2 [1]),Activity (H9c2 [2]),Activity (H9c2 [3]),Activity (H9c2 [6]),Activity (H9c2 [8])
27,Active,Active,C[C@H](COC(=O)C[P+](c1ccccc1)(c1ccccc1)c1ccccc1)NC1=NS(=O)(=O)c2cc(Cl)ccc2N1.[Cl-],inactive,Active,inactive,inactive,inactive
63.7,,,C[C@H](COC(=O)CCC[P+](c1ccccc1)(c1ccccc1)c1ccccc1)NC1=NS(=O)(=O)c2cc(Cl)ccc2N1,inactive,,inactive,inactive,inactive
56,,,C[C@H](COC(=O)CC[P+](c1ccccc1)(c1ccccc1)c1ccccc1)NC1=NS(=O)(=O)c2cc(Cl)ccc2N1,inactive,,inactive,inactive,inactive
73.9,,,CC1=Nc2ccc(Cl)cc2S(=O)(=O)N1,,,,,
